From US10358464B2, “Specific binding sites in collagen for integrins and use thereof” (The Texas A&M University System, priority 2005, dated 2019)
Non-standard residues stand in square brackets, D forms with d. Residues, ends and D or L forms follow the SMILES beside them. Hyp = O=C(O)[C@@H]1C[C@@H](O)CN1

Assays:
[1] = CD temperature-dependent denaturation of triple helix; type: physicochemical; settings: CD ellipticity at 225 nm, 20° C./hr, Boltzmann sigmoidal fit
Experimental: Circular Dichroism (CD) Spectroscopy. Synthetic collagen peptides were analyzed by CD spectroscopy, as described previously (18) with the following modifications. Briefly, peptides were dissolved in HBS to a concentration of 50 μM. CD spectra were collected on a Jasco J720 spectropolarimeter (Tokyo, Japan) from 190 to 240 nm, with bandwidth of 1 nm and integrated for 1 s at 0.2 nm intervals. Samples were measured at room temperature using cuvettes with 0.02 cm path length. For temperature-dependent denaturation analysis, […] of peptides were added to a thermostatically controlled cuvette with a 0.5 cm path length. Thermal transition profiles were recorded at 225 nm as described above with a temperature slope of 20° C./hr. To calculate the temperature melting points, the thermal transition profiles were fitted with Boltzmann sigmoidal model using the GraphPad Prism™ software (GraphPad Software Inc., San Diego, Calif.).

[2] = biological target: α2I (Homo sapiens, UniProt P17301); experiment: SPR, I domain binding to immobilized synthetic collagen peptide
[3] = biological target: T1, α2I binding to type III collagen (Homo sapiens, UniProt P17301); experiment: Competition ELISA, inhibition of I domain binding to type III collagen; settings: 100 μM peptide, 5 μM α2I, type III procollagen-coated wells
T1 construct: recombinant I domains from integrins α1 and α2 (α1I and α2I); made in house

[4] = biological target: T2, α1I binding to type III collagen (Homo sapiens, UniProt P56199); experiment: as above; settings: 100 μM peptide, 0.5 μM α1I, type III procollagen-coated wells
T2 construct: recombinant I domains from integrins α1 and α2 (α1I and α2I); made in house

[5] = test system: MRC-5 cells; experiment: Cell attachment assay on coated substrates; type: cell-based, human; settings: room temperature
Experimental: Reagents and Cell Culture. The human recombinant mature type III collagen used for cell attachment assays was purchased from FibroGen. All cell culture media components were purchased from Invitrogen. The human lung fibroblast cell line MRC-5 was purchased from American Type Culture Collection (ATCC) (Manassas, Va.). The cells were cultured and passaged in Dulbecco's modified Eagle's medium (DMEM) supplemented with 10% fetal bovine serum, 100 unit/ml penicillin and 100 μg/ml streptomycin. The cells were grown to subconfluence and passaged every 2-3 days.
Cell attachment assay. MRC-5 cells were starved overnight in serum deficient DMEM containing penicillin and streptomycin, then detached using 1 mM EDTA and 0.025% trypsin at 37° C. for 2 minutes. The cells were washed with PBS and resuspended in DMEM containing 0.2% BSA supplemented with 2 mM MgCl2. 100 μl of the cell suspension (˜1.5×10^5 cells/ml) were added to the microtiter wells coated with different concentrations of collagen or collagen peptides and blocked with PBS containing 0.5% (w/v) BSA. After incubation at room temperature for 45 min, the wells were washed with PBS. Attached cells were fixed with 3% p-formaldehyde for 10 min at room temperature. Following washing with cold Tris-buffered saline (TBS), pH 7.4, cells were fixed again in 20% methanol for 10 min and stained with 0.5% crystal violet for 5 min. The wells were thoroughly washed with distilled water and air-dried. Sodium citrate (0.1 M) was then added to the wells to dissolve the dye and the absorbance at 590 nm was measured. The maximum cell attachment on type III collagen was set to 100% and, residual attachment on BSA was set to 0%.
Adhesion of MRC-5 cells to peptide#1 (SEQ ID NO: 15) substrates. […] Wells in 96-well plates were coated with increasing concentrations of type III collagen, peptide #1 (SEQ ID NO: 15) or #2 (SEQ ID NO: 16) and 1.5×10^4 MRC-5 cells were added to each well. The plate was incubated for 45 min at room temperature and adhering cells were quantified as described herein.

[6] = biological target: α1I (Homo sapiens, UniProt P56199); experiment: SPR, I domain binding to immobilized synthetic collagen peptide
[7] = 30 nM I domain, 2 mM EDTA versus 1 mM MgCl2

Sequence of α1I (P56199 161-360 limits assumed): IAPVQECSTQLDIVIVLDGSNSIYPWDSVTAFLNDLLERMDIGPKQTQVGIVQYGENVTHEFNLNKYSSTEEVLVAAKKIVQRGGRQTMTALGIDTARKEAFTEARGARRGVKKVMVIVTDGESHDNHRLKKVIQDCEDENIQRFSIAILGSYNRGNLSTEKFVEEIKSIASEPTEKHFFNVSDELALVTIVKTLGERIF
Sequence of α2I (P17301 188-365 limits assumed): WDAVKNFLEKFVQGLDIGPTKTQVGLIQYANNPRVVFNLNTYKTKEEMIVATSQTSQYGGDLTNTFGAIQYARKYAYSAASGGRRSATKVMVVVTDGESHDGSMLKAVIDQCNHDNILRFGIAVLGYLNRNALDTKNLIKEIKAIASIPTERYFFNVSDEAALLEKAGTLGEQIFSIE
T2 sequence (P56199 161-360 limits assumed): as the sequence (P56199 161-360 limits assumed) above
T1 sequence (P17301 188-365 limits assumed): as the sequence (P17301 188-365 limits assumed) above

CC(C)C[C@H](NC(=O)CNC(=O)[C@H](CCCNC(=N)N)NC(=O)[C@H](CCC(=O)O)NC(=O)CNC(=O)[C@@H]1C[C@@H](O)CN1C(=O)[C@H](CCCNC(=N)N)NC(=O)CNC(=O)[C@@H]1C[C@@H](O)CN1C(=O)[C@H](CCCNC(=N)N)NC(=O)CNC(=O)[C@@H]1C[C@@H](O)CN1C(=O)[C@@H]1CCCN1C(=O)CNC(=O)[C@@H]1C[C@@H](O)CN1C(=O)[C@@H]1CCCN1C(=O)CNC(=O)[C@@H]1C[C@@H](O)CN1C(=O)[C@@H]1CCCN1C(=O)CN)C(=O)N1C[C@H](O)C[C@H]1C(=O)NCC(=O)N1CCC[C@H]1C(=O)N1C[C@H](O)C[C@H]1C(=O)NCC(=O)N1CCC[C@H]1C(=O)N1C[C@H](O)C[C@H]1C(=O)NCC(=O)N1CCC[C@H]1C(=O)N1C[C@H](O)C[C@H]1C(N)=O [peptide #1, (GPO)3GROGROGERGLO(GPO)3] (H-GP[Hyp]GP[Hyp]GP[Hyp]GR[Hyp]GR[Hyp]GERGL[Hyp]GP[Hyp]GP[Hyp]GP[Hyp]-NH2; N-terminus and C-terminus assumed)
melting temperature (Tm) of triple helix [1]: 43 °C
Kd [2]: 283 nM
koff [2]: 0.012 s⁻¹
kon [2]: 44000 M⁻¹ s⁻¹
binding in the presence of EDTA [2, 7]: completely abolished binding
dissociate rate ([2]; 15° C., 1:1 binding model): 12 s^−1×10^3
inhibition at 100 µM [3]: 80%
inhibition at 100 µM [4]: 100%
adhesion of MRC-5 cells to coated substrate ([5]; increasing coating concentrations, 1.5×10^4 cells per well, 45 min): could support adhesion of MRC-5 cells in a dose-dependent manner
cell spreading on coated substrate ([5]; 1.5 hrs (data not shown)): Considerable cell spreading
Kd [6]: 23 nM
koff [6]: 0.0013 s⁻¹
kon [6]: 56000 M⁻¹ s⁻¹
binding in the presence of EDTA [6, 7]: completely abolished binding
dissociate rate ([6]; 15° C., 1:1 binding model): 1.3 s^−1×10^3
